The source of these data is US6582351B1, “Imidazopyridinone derivatives and their use as phosphodiesterase inhibitors” (Fujisawa Pharmaceutical Co., Ltd., priority 1999, dated 2003).

The target in one series is T1, human platelet PDE-V (Homo sapiens, UniProt O76074).
T1 construct: Human platelet cGMP-PDE was separated from other isozymes in human platelets; from tissue; host or cells: human platelets
The series can be described thus: cGMP-Phosphodiesterase (PDE) assay; enzymatic inhibitory test against human platelet PDE-V. The class given is biochemical. To be noted: 0.1 μM [3H]-cGMP substrate, 30° C., 10 minutes. How it is done:
[II] Test Method: cGMP-Phosphodiesterase (PDE) Assay
Human platelet cGMP-PDE was separated from other isozymes in human platelets by a modification of the method of Thompson et. al. (see Cyclic Nucleotide Phosphodiesterase (PDE), in Methods of Enzymatic analysis, Vol 4, p127-234, 1984). Specific inhibitory activity of PDE-V was measured by following procedure. In enzyme inhibition assays, the test compounds were dissolved in DMSO and then diluted with assay buffer (50 mM Tris-HCl, 0.077 mg/ml dithiothreitol and 10 mg/ml snake venom, 1 mM EGTA, pH 8.0), at final concentrations ranging from 10^−10 to 10^−6 M. Assays were performed at 0.1 μM substrate ([^3H]-cGMP) concentration, at 30° C. for 10 minutes using enzyme dilutions which gave 10-20% hydrolysis of substrate. Each assay was initiated by addition of substrate and terminated by addition of anion exchange resin (Dowex® 1-X8, […]) followed by centrifugation for 10 minutes (3000 rpm, at 4° C.). Radioactivity of supernatant ([^3H]-GMP) was assayed by liquid scintillation counting.

Regarding `COc1ccc(Cn2c(=O)n([C@H]3CCN(C(=O)OC(C)(C)C)C3)c3ccc(C#N)cc32)cc1Cl` [Example 2(60), 1-[(S)-1-tert-Butoxycarbonylpyrrolidin-3-yl]-3-(3-chloro-4-methoxybenzyl)-5-cyano-2,3-dihydro-1H-benzimidazol-2-one], the IC50 (in general, the point on the concentration scale where inhibition reaches its midpoint) at human platelet PDE-V is less than 10 nM.

On human platelet PDE-V, `COc1ccc(Cn2c(=O)n(C3CCC4OC(C)(C)OC4C3)c3ccc(C#N)cc32)cc1Cl` (stereo not drawn) [Example 2(95), 3-(3-Chloro-4-methoxybenzyl)-5-cyano-1-(t-3,t-4-isopropylidenedioxy-r-1-cyclohexyl)-2,3-dihydro-1H-benzimidazol-2-one] gave an IC50 of less than 10 nM.

`COc1ccc(Cn2c(=O)n([C@H]3CC[C@H](NC(=O)OC(C)(C)C)CC3)c3ccc(C(F)(F)F)cc32)cc1Cl` [Example 2(99), 1-[trans-4-(N-tert-Butoxycarbonylamino)cyclohexyl]-3-(3-chloro-4-methoxybenzyl)-5-trifluoromethyl-2,3-dihydro-1H-benzimidazol-2-one]: the melting point (commonly the temperature, or range, at which the solid turns liquid) was in the range of 185.5 to 187 °C.

On to `COc1ccc(Cn2c(=O)n([C@H]3CC[C@H](O)CC3)c3ncc(C#N)cc32)cc1Br` [Example 2(100), 1-(3-Bromo-4-methoxybenzyl)-6-cyano-3-(trans-4-hydroxycyclohexyl)-2,3-dihydro-1H-imidazo[4,5-b]pyridin-2-one], for which the melting point lay in the range of 114 to 116 °C.

As to `COc1ccc(Cn2c(=O)n([C@H]3CC[C@H](O)CC3)c3ncc(C#N)cc32)cc1C` [Example 2(101), 6-Cyano-3-(trans-4-hydroxycyclohexyl)-1-(4-methoxy-3-methylbenzyl)-2,3-dihydro-1H-imidazo[4,5-b]pyridin-2-one], the melting point fell in the range of 168 to 169 °C.

As to `COc1ccc(Cn2c(=O)n([C@H]3CC[C@H](O)CC3)c3ncc(C#N)cc32)cc1C#N` [Example 2(102), 6-Cyano-1-(3-cyano-4-methoxybenzyl)-3-(trans-4-hydroxycyclohexyl)-2,3-dihydro-1H-imidazo[4,5-b]pyridin-2-one], the melting point fell in the range of 133 to 134 °C.

`COc1ccc(Cn2c(=O)n([C@H]3CCN(C(=O)OC(C)(C)C)C3)c3ncc(C(F)(F)F)cc32)cc1Cl` [Example 2(103), 3-((S)-1-tert-Butoxycarbonylpyrrolidin-3-yl)-1-(3-chloro-4-methoxybenzyl)-6-trifluoromethyl-2,3-dihydro-1H-imidazo[4,5-b]pyridin-2-one] came in with a melting point of 87 to 89 °C.

Molecule `COc1ccc(Cn2c(=O)n(-c3ccc4nc[nH]c4c3)c3ncc(C#N)cc32)cc1Cl` [Example 2(104), 3-(Benzimidazol-5-yl)-1-(3-chloro-4-methoxybenzyl)-6-cyano-2,3-dihydro-1H-imidazo[4,5-b]pyridin-2-one] had a melting point of 163 to 166 °C.

With `COc1ccc(Cn2c(=O)n(-c3ccc4[nH]ccc4c3)c3ncc(C#N)cc32)cc1Cl` [Example 2(105), 1-(3-Chloro-4-methoxybenzyl)-3-(1H-indol-5-yl)-6-cyano-2,3-dihydro-1H-imidazo[4,5-b]pyridin-2-one], the melting point was in the range of 281 to 282 °C.

Consider `COc1ccc(Cn2c(=O)n(C(C)(C)CO)c3ncc(C(F)(F)F)cc32)cc1Cl` [Example 3, 1-(3-chloro-4-methoxybenzyl)-3-(1,1-dimethyl-2-hydroxyethyl)-6-trifluoromethyl-2,3-dihydro-1H-imidazo[4,5-b]pyridin-2-one], for which the melting point is 195 to 197 °C.

`COc1ccc(Cn2c(=O)n([C@H]3CC[C@H](O)CC3)c3ccc(S(C)(=O)=O)cc32)cc1Cl` [Example 4(3), 3-(3-Chloro-4-methoxybenzyl)-1-(trans-4-hydroxycyclohexyl)-5-methylsulfonyl-2,3-dihydro-1H-benzimidazol-2-one]: the melting point lay in the range of 265 to 265.5 °C.

With `COc1ccc(Cn2c(=O)n([C@H](C)CO)c3ccc(C(F)(F)F)cc32)cc1Cl` [Example 4(4), 3-(3-Chloro-4-methoxybenzyl)-1-((R)-2-hydroxy-1-methylethyl)-5-trifluoromethyl-2,3-dihydro-1H-benzimidazol-2-one], the melting point is 108 to 109 °C.

As for `COc1ccc(Cn2c(=O)n([C@H]3CC[C@H](O)CC3)c3ccc(C(=O)c4ccccc4)cc32)cc1Cl` [Example 4(6), 5-Benzoyl-3-(3-chloro-4-methoxybenzyl)-1-(trans-4-hydroxycyclohexyl)-2,3-dihydro-1H-benzimidazol-2-one], the melting point was in the range of 160.5 to 162 °C.

With `COc1ccc(Cn2c(=O)n(CCO)c3ccc(C(F)(F)F)cc32)cc1Cl` [Example 4(7), 3-(3-Chloro-4-methoxybenzyl)-1-(2-hydroxyethyl)-5-trifluoromethyl-2,3-dihydro-1H-benzimidazol-2-one], the melting point was in the range of 106 to 107 °C.

The molecule `COc1ccc(Cn2c(=O)n([C@H](C)CO)c3ncc(C#N)cc32)cc1Cl` [Example 4(8), 1-(3-Chloro-4-methoxybenzyl)-6-cyano-3-((R)-2-hydroxy-1-methylethyl)-2,3-dihydro-1H-imidazo[4,5-b]pyridin-2-one] returned a melting point of 164 to 165 °C.

In the case of `COc1ccc(Cn2c(=O)n([C@H]3CC[C@H](N)CC3)c3ccc(C(F)(F)F)cc32)cc1Cl` [Example 8(4), 1-(trans-4-Aminocyclohexyl)-3-(3-chloro-4-methoxybenzyl)-5-trifluoromethyl-2,3-dihydro-1H-benzimidazol-2-one], the melting point lay within 167 to 168.5 °C.

In the case of `COc1ccc(Cn2c(=O)n([C@H]3CC[C@H](NC(N)=O)CC3)c3ccc(C(F)(F)F)cc32)cc1Cl` [Example 14(2), 1-(trans-4-Ureidocyclohexyl)-3-(3-chloro-4-methoxybenzyl)-5-trifluoromethyl-2,3-dihydro-1H-benzimidazol-2-one], the melting point is 164 to 165.5 °C.

In the case of `COc1ccc(Cn2c(=O)n([C@H]3CC[C@H](O)CC3)c3ncc(C(F)(F)F)cc32)cc1OC` [Example 18, 1-(3,4-dimethoxybenzyl)-3-(trans-4-hydroxycyclohexyl)-6-trifluoromethyl-2,3-dihydro-1H-imidazo[4,5-b]pyridin-2-one], the melting point was in the range of 128 to 130 °C.

Take `COc1ccc(Cn2c(=O)n([C@H]3CC[C@H](O)CC3)c3ncc(C(F)(F)F)cc32)cc1Cl` [Example 19(2), 1-(3-Chloro-4-methoxybenzyl)-3-(trans-4-hydroxycyclohexyl)-6-trifluoromethyl-2,3-dihydro-1H-imidazo[4,5-b]pyridin-2-one]: the melting point fell in the range of 121 to 123 °C.

`O=c1n(Cc2ccc(Cl)c(Cl)c2)c2cc(C(F)(F)F)cnc2n1[C@H]1CC[C@H](O)CC1` [Example 19(3), 1-(3,4-Dichlorobenzyl)-3-(trans-4-hydroxycyclohexyl)-6-trifluoromethyl-2,3-dihydro-1H-imidazo[4,5-b]pyridin-2-one] had a melting point of 170 to 171.5 °C.

`COc1ccc(Cn2c(=O)n([C@H]3CC[C@H](O)CC3)c3ccc(C)cc32)cc1OC` [Example 19(4), 3-(3,4-Dimethoxybenzyl)-1-(trans-4-hydroxycyclohexyl)-5-methyl-2,3-dihydro-1H-benzimidazol-2-one] yielded a melting point of 174 to 175 °C.

With `COc1ccc(Cn2c(=O)n([C@H]3CC[C@H](O)CC3)c3ccc(C(=O)O)cc32)cc1Cl` [Example 19(5), 5-Carboxy-3-(3-chloro-4-methoxybenzyl)-1-(trans-4-hydroxycyclohexyl)-2,3-dihydro-1H-benzimidazol-2-one], the melting point lay within 275 to 276 °C.

Regarding `COc1ccc(Cn2c(=O)n([C@H]3CC[C@H](O)CC3)c3ncc(C(=O)O)cc32)cc1Cl` [Example 19(25), 6-Carboxy-1-(3-chloro-4-methoxybenzyl)-3-(trans-4-hydroxycyclohexyl)-2,3-dihydro-1H-imidazo[4,5-b]pyridin-2-one], the melting point lay within 262 to 262.5 °C.

`COc1ccc(Cn2c(=O)n([C@H]3CC[C@H](O)CC3)c3ccc(C(N)=O)cc32)cc1Cl` [Example 20, 5-carbamoyl-3-(3-chloro-4-methoxybenzyl)-1-(trans-4-hydroxycyclohexyl)-2,3-dihydro-1H-benzimidazol-2-one] showed a melting point of 291.5 to 292 °C.

Consider `COc1ccc(Cn2c(=O)n([C@H]3CC[C@H](O)CC3)c3ncc(C(=O)NCc4cccnc4)cc32)cc1Cl` [Example 21(2), 1-(3-Chloro-4-methoxybenzyl)-6-(3-picolylcarbamoyl)-3-(trans-4-hydroxycyclohexyl)-2,3-dihydro-1H-imidazo[4,5-b]pyridin-2-one], for which the melting point lay in the range of 134 to 135 °C.

In turn, `COc1ccc(Cn2c(=O)n([C@H]3CC[C@H](OC(C)=O)CC3)c3ccc([N+](=O)[O-])cc32)cc1OC` [Example 22(1), 1-(trans-4-Acetoxycyclohexyl)-3-(3,4-dimethoxybenzyl)-5-nitro-2,3-dihydro-1H-benzimidazol-2-one] registered a melting point of 207 to 207.5 °C.

The molecule `COc1ccc(Cn2c(=O)n([C@H]3CC[C@@H](O)CC3)c3ncc(C#N)cc32)cc1Cl` [Example 24, 1-(3-chloro-4-methoxybenzyl)-6-cyano-3-(cis-4-hydroxycyclohexyl)-2,3-dihydro-1H-imidazo[4,5-b]pyridin-2-one] showed a melting point of 197 to 198 °C.
